The values below come from patent US10077289B2, “Cyclosporins modified on the MeBmt sidechain by heterocyclic rings” (priority 2015, dated 2018).

Converted amounts (≈) assume the structure as drawn. Like-named read-outs stand apart in the source and are kept apart here.

Series [1] in a line: Water Solubility Assay (measured in pH 7.8 buffer). The class given is physicochemical. The following applies: 25 °C, pH 7.8, aqueous buffer, kinetic from dmso stock.
Series [2] concerns the target calcineurin/cyclophilin A (Homo sapiens (Human), UniProt P62937+P63098+Q08209). In words: Calcineurin Phosphatase (CaN) Assay (+CypA). The class given is biochemical. The following applies: in the presence of Cyp A, 1:1 complex with inhibitor; read-out: Calcineurin Phosphatase (CaN) Assay (+CypA) IC50.
Series [3] addresses Human recombinant cyclophilin A (Cyp A) (Homo sapiens (Human), UniProt P62937). In words: Protease-free PPIase assay.
Where [4] appears, read: read-out: Protease-free PPIase Assay Ki, human recombinant Cyp A, 10 °C.

The solubility is the concentration that dissolves in the medium under given conditions. What is called IC50 is the point on the concentration scale where inhibition reaches its midpoint. Usually Ki stands for a measure of affinity in units of concentration, obtained from inhibition or displacement. For the compound `CC[C@H]1NC(=O)[C@@H]([C@H](O)[C@H](C)CCCc2ccn(C)n2)N(C)C(=O)[C@@H](C(C)C)N(C)C(=O)[C@@H](CC(C)C)N(C)C(=O)[C@@H](CC(C)C)N(C)C(=O)[C@H](C)NC(=O)[C@@H](C)NC(=O)[C@@H](CC(C)C)N(C)C(=O)[C@@H](C(C)C)NC(=O)[C@H](CC(C)C)N(C)C(=O)[C@@H](C)N(C)C1=O` [Compound 25, [(2S,3R,4R)-3-Hydroxy-4-methyl-2-(methylamino)-7-(1-methylpyrazol-3-yl)heptanoic acid]^1 [(R)-methyl-Sar]^3 cyclosporin A], in series [1], the solubility at 18 h was greater than 100 µM. For the same compound, the IC50 in series [2] was 1460 nM. For the same compound, in series [3], the inhibition constant (Ki) is 3.8 nM.
Taken in the same sequence, the figures for `CC[C@H]1NC(=O)[C@@H]([C@H](O)[C@H](C)CCCc2nccn2C)N(C)C(=O)[C@@H](C(C)C)N(C)C(=O)[C@@H](CC(C)C)N(C)C(=O)[C@@H](CC(C)C)N(C)C(=O)[C@H](C)NC(=O)[C@@H](C)NC(=O)[C@@H](CC(C)C)N(C)C(=O)[C@@H](C(C)C)NC(=O)[C@H](CC(C)C)N(C)C(=O)[C@@H](C)N(C)C1=O` [Compound 26, [(2S,3R,4R)-3-Hydroxy-7-(1-methyl-1H-imidazol-2-yl)-4-methyl-2-(methylamino)heptanoic acid]^1 [(R)-methyl-Sar]^3 cyclosporin A] were greater than 100 µM, greater than 10000 nM and 12.2 nM.
For `CC[C@H]1NC(=O)[C@@H]([C@H](O)[C@H](C)CCCc2cnn(C)c2)N(C)C(=O)[C@@H](C(C)C)N(C)C(=O)[C@@H](CC(C)C)N(C)C(=O)[C@@H](CC(C)C)N(C)C(=O)[C@H](C)NC(=O)[C@@H](C)NC(=O)[C@@H](CC(C)C)N(C)C(=O)[C@@H](C(C)C)NC(=O)[C@H](CC(C)C)N(C)C(=O)[C@@H](C)N(C)C1=O` [Compound 27, [(2S,3R,4R)-3-Hydroxy-4-methyl-2-(methylamino)-7-(1-methylpyrazol-4-yl)-heptanoic acid]^1 [(R)-methyl-Sar]^3 cyclosporin A] the same measures were greater than 100 µM, 1110 nM and 6.8 nM.
For `CC[C@H]1NC(=O)[C@@H]([C@H](O)[C@H](C)CCCCc2ccccn2)N(C)C(=O)[C@@H](C(C)C)N(C)C(=O)[C@@H](CC(C)C)N(C)C(=O)[C@@H](CC(C)C)N(C)C(=O)[C@H](C)NC(=O)[C@@H](C)NC(=O)[C@@H](CC(C)C)N(C)C(=O)[C@@H](C(C)C)NC(=O)[C@H](CC(C)C)N(C)C(=O)[C@@H](C)N(C)C1=O` [Compound 28, [(2S,3R,4R)-3-Hydroxy-4-methyl-2-(methylamino)-8-(pyridin-2-yl)-octanoic acid]^1 [(R)-methyl-Sar]^3 cyclosporin A] the same measures were 50 to 75 µM (≈ 64.8 to 97.2 µg/mL), greater than 10000 nM and 3.9 nM.
The compound `CC[C@H]1NC(=O)[C@@H]([C@H](O)[C@H](C)CCCc2ccccn2)N(C)C(=O)[C@@H](C(C)C)N(C)C(=O)[C@@H](CC(C)C)N(C)C(=O)[C@@H](CC(C)C)N(C)C(=O)[C@H](C)NC(=O)[C@@H](C)NC(=O)[C@@H](CC(C)C)N(C)C(=O)[C@@H](C(C)C)NC(=O)[C@H](CC(C)C)N(C)C(=O)CN(C)C1=O` [Compound 29, [(2S,3R,4R)-3-Hydroxy-4-methyl-2-(methylamino)-7-(pyridine-2-yl)-heptanoic acid]^1 cyclosporin A] returned a solubility at 18 h in series [1] of 50 to 75 µM (≈ 63.4 to 95.1 µg/mL). Moreover, the 50% inhibitory concentration (IC50) in series [2] was found to be 2650 nM. For the same compound, the inhibitory constant (Ki) in series [3] (setting [4]) came to 11 nM.
The compound `CC[C@H]1NC(=O)[C@@H]([C@H](O)[C@H](C)CCCc2ccncc2)N(C)C(=O)[C@@H](C(C)C)N(C)C(=O)[C@@H](CC(C)C)N(C)C(=O)[C@@H](CC(C)C)N(C)C(=O)[C@H](C)NC(=O)[C@@H](C)NC(=O)[C@@H](CC(C)C)N(C)C(=O)[C@@H](C(C)C)NC(=O)[C@H](CC(C)C)N(C)C(=O)CN(C)C1=O` [Compound 30, [(2S,3R,4R)-3-Hydroxy-4-methyl-2-(methylamino)-7-(pyridin-4-yl)-heptanoic acid]^1 cyclosporin A] displayed a solubility at 18 h in series [1] of 50 to 75 µM (≈ 63.4 to 95.1 µg/mL). In addition, the IC50 in series [2] was 3150 nM. For the same compound, the inhibitory constant (Ki) in series [3] was 14 nM.
In series [1], `CC[C@H]1NC(=O)[C@@H]([C@H](O)[C@H](C)CCCc2cccnc2)N(C)C(=O)[C@@H](C(C)C)N(C)C(=O)[C@@H](CC(C)C)N(C)C(=O)[C@@H](CC(C)C)N(C)C(=O)[C@H](C)NC(=O)[C@@H](C)NC(=O)[C@@H](CC(C)C)N(C)C(=O)[C@@H](C(C)C)NC(=O)[C@H](CC(C)C)N(C)C(=O)CN(C)C1=O` [Compound 31, [(2S,3R,4R)-3-Hydroxy-4-methyl-2-(methylamino)-7-(pyridin-3-yl)-heptanoic acid]^1 cyclosporin A] showed a solubility at 18 h of 50 to 75 µM (≈ 63.4 to 95.1 µg/mL). For the same compound, the IC50 in series [2] worked out at 3950 nM. Besides, the inhibitory constant (Ki) in series [3] stood at 9.5 nM.
For the compound `CC[C@H]1NC(=O)[C@@H]([C@H](O)[C@H](C)CCCc2ncccn2)N(C)C(=O)[C@@H](C(C)C)N(C)C(=O)[C@@H](CC(C)C)N(C)C(=O)[C@@H](CC(C)C)N(C)C(=O)[C@H](C)NC(=O)[C@@H](C)NC(=O)[C@@H](CC(C)C)N(C)C(=O)[C@@H](C(C)C)NC(=O)[C@H](CC(C)C)N(C)C(=O)CN(C)C1=O` [Compound 32, [(2S,3R,4R)-3-Hydroxy-4-methyl-2-(methylamino)-7-(pyrimidin-2-yl)-heptanoic acid]^1 cyclosporin A], the solubility at 18 h in series [1] was in the range of 75 to 100 µM (≈ 95.2 to 127 µg/mL). The half-maximal inhibitory concentration (IC50) in series [2] turned out to be 3450 nM. Further, the Ki in series [3] (setting [4]) was found to be 8.3 nM.
In series [1], `CC[C@H]1NC(=O)[C@@H]([C@H](O)[C@H](C)CCCc2ccncc2)N(C)C(=O)[C@@H](C(C)C)N(C)C(=O)[C@@H](CC(C)C)N(C)C(=O)[C@@H](CC(C)C)N(C)C(=O)[C@H](C)NC(=O)[C@@H](C)NC(=O)[C@@H](CC(C)C)N(C)C(=O)[C@@H](C(C)C)NC(=O)[C@H](CC(C)C)N(C)C(=O)[C@@H](COC)N(C)C1=O` [Compound 33] returned a solubility at 18 h of 75 to 100 µM (≈ 98.4 to 131 µg/mL). Further, the IC50 in series [2] amounted to 2390 nM. Further, the Ki in series [3] was 3.1 nM.
For `CC[C@H]1NC(=O)[C@@H]([C@H](O)[C@H](C)CCCc2ccccn2)N(C)C(=O)[C@@H](C(C)C)N(C)C(=O)[C@@H](CC(C)C)N(C)C(=O)[C@@H](CC(C)C)N(C)C(=O)[C@H](C)NC(=O)[C@@H](C)NC(=O)[C@@H](CC(C)C)N(C)C(=O)[C@@H](C(C)C)NC(=O)[C@H](CC(C)C)N(C)C(=O)[C@@H](CO)N(C)C1=O` [Compound 34] the same measures were greater than 100 µM, 4650 nM and 3.1 nM.
The compound `CC[C@H]1NC(=O)[C@@H]([C@H](O)[C@H](C)CCCc2ccccn2)N(C)C(=O)[C@@H](C(C)C)N(C)C(=O)[C@@H](CC(C)C)N(C)C(=O)[C@@H](CC(C)C)N(C)C(=O)[C@H](C)NC(=O)[C@@H](C)NC(=O)[C@@H](CC(C)C)N(C)C(=O)[C@@H](C(C)C)NC(=O)[C@H](CC(C)C)N(C)C(=O)[C@@H](SC)N(C)C1=O` [Compound 35] returned a solubility at 18 h in series [1] of 75 to 100 µM (≈ 98.5 to 131 µg/mL). For the same compound, the 50% inhibitory concentration (IC50) in series [2] was found to be 1600 nM. The Ki in series [3] (setting [4]) was 4.4 nM.
In turn, `CC[C@H]1NC(=O)[C@@H]([C@H](O)[C@H](C)CCOc2ncccn2)N(C)C(=O)[C@@H](C(C)C)N(C)C(=O)[C@@H](CC(C)C)N(C)C(=O)[C@@H](CC(C)C)N(C)C(=O)[C@H](C)NC(=O)[C@@H](C)NC(=O)[C@@H](CC(C)C)N(C)C(=O)[C@@H](C(C)C)NC(=O)[C@H](CC(C)C)N(C)C(=O)[C@@H](C)N(C)C1=O` [Compound 36, [(2S,3R,4R)-3-Hydroxy-4-methyl-2-(methylamino)-6-(pyrimidin-2-yloxy)-hexanoic acid]^1 cyclosporin A] had a solubility at 18 h in series [1] greater than 100 µM. Further, the IC50 in series [2] is 1260 nM. The Ki in series [3] is 7.7 nM.
As for `CC[C@H]1NC(=O)[C@@H]([C@H](O)[C@H](C)CCOCc2ccncc2)N(C)C(=O)[C@@H](C(C)C)N(C)C(=O)[C@@H](CC(C)C)N(C)C(=O)[C@@H](CC(C)C)N(C)C(=O)[C@H](C)NC(=O)[C@@H](C)NC(=O)[C@@H](CC(C)C)N(C)C(=O)[C@@H](C(C)C)NC(=O)[C@H](CC(C)C)N(C)C(=O)[C@@H](C)N(C)C1=O` [Compound 37, [(2S,3R,4R)-3-Hydroxy-4-methyl-2-(methylamino)-6-(pyridin-4-ylmethoxy)-hexanoic acid]^1 cyclosporin A], the solubility at 18 h in series [1] is greater than 100 µM. For the same compound, the IC50 in series [2] came out at 5640 nM. Besides, in series [3], the Ki came to 5.6 nM.
